The values below come from PubChem BioAssay (NCI).

Holding throughout (test): DTP human tumour cell line panel, 48 h
In assay [1] the test system is SW-620 colon.
Assay [2] has as its system NCI-H23 lung.
In assay [3] the test system is SK-OV-3 ovarian.
Assay [4] deals with CCRF-CEM leukemia.
Assay [5] relates to OVCAR-8 ovarian.
The subject of assay [6] is HOP-92 NSCLC.
For assay [7], the system named is MDA-N.
Assay [8] has as its system RPMI-8226 leukemia.
For assay [9], the system named is BT-549 breast.
In assay [10] the test system is MOLT-4 leukemia.

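Compound exposure: 48 hours, 5 concentrations, 96-well plates. Definition used: TGI = concentration required for complete inhibition of growth.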

Regarding `Nc1ncnc2c1ccn2C/C=C/CO`, the total growth inhibition concentration (TGI) in assay [1], in [2], in assay [3], in assay [4], in assay [5] and in assay [6] was greater than 100 µM throughout. Also, the concentration for total growth inhibition (TGI) in [7], in [8], in assay [9] and in assay [10] was greater than 100 µM in each case.

On to `COc1cc2c(cc1OCCCN1C(=O)c3cccc4cccc(c34)C1=O)N=C[C@@H]1CCCN1C2=O`, for which the concentration for total growth inhibition (TGI) in [1] is greater than 63 µM; in assay [2], greater than 100 µM; in assay [3] it was greater than 100 µM; in assay [4], 22.2 µM; in [5], greater than 100 µM; in [6], greater than 58.2 µM. The concentration for total growth inhibition (TGI) was greater than 100 µM in assay [7], greater than 50.2 µM in assay [8], greater than 100 µM in [9] and greater than 65.4 µM in assay [10].

As for `Cc1ccc2c(c1)c1ccc3c(c1n2C)C(=O)C=CC3=O`, the concentration for total growth inhibition (TGI) is 2.37 µM in assay [1]; 5.82 µM in assay [2]; greater than 10 µM in assay [3]; 0.62 µM in [4]; 6.01 µM in assay [5]; 3.92 µM in assay [6]. In addition, the concentration for total growth inhibition (TGI) amounted to 3.65 µM in assay [7], 4.2 µM in assay [8], 2.83 µM in assay [9] and 2.19 µM in assay [10].

Turning to `O=C(c1ccccc1)c1ccc2c(c1)NC(=O)c1ccccc1SSc1ccccc1C(=O)N2`, the concentration for total growth inhibition (TGI) in assay [1], in assay [2], in assay [3], in [4], in [5] and in [6] was greater than 100 µM in each case. Further, the TGI in assay [7], in assay [8], in assay [9] and in assay [10] was greater than 100 µM throughout.

`Cc1c2c(c(C)n1-c1ccccc1)C(=O)N(CCN1CCN(c3cccc(C(F)(F)F)c3)CC1)C2=O`: the TGI in [2], in assay [3], in assay [5], in assay [6], in assay [7] and in assay [8] was greater than 100 µM in each case. Further, the TGI in assay [9] and in [10] was greater than 100 µM in each case.

As for `COC(=O)c1ccccc1CC1Cc2cccc(C)c2C1=O` (stereo not drawn), the TGI in assay [1] was greater than 100 µM; in [2], greater than 100 µM; in assay [3] it was greater than 100 µM; in assay [4], greater than 100 µM; in assay [5], greater than 100 µM; in assay [6], 80.6 µM. Besides, the figures for the concentration for total growth inhibition (TGI) in assay [7], in assay [9] and in assay [10] were greater than 100 µM, greater than 100 µM and 51.2 µM, respectively.

In the case of `O=[N+]([O-])c1cc2oc(CSc3ccccc3)nc2cc1Cl`, the TGI in assay [1] is greater than 100 µM; in assay [2] it was 88.6 µM; in assay [3], 78.7 µM; in assay [4] it was greater than 100 µM; in [5], greater than 100 µM; in [6], greater than 100 µM. The TGI in [7] was greater than 100 µM; in [8], greater than 100 µM; in assay [9] it was 80.8 µM; in [10], greater than 100 µM.

For `CSc1nc2c(c(N(C)C)n1)C(O)n1c(nc3ccccc31)S2` (stereo not drawn), the total growth inhibition concentration (TGI) in assay [1] is greater than 100 µM; in [2], greater than 100 µM; in [3], 43.6 µM; in assay [4], greater than 100 µM; in assay [5], greater than 56.8 µM; in assay [6], greater than 74.5 µM. The TGI in assay [7], in assay [8], in [9] and in [10] was greater than 100 µM in each case.

Turning to `Clc1ccc(C=NC23CC4CC(CC(C4)C2)C3)c(Cl)c1`, the TGI in [1], in [2], in [3], in [4], in assay [5] and in [6] was greater than 10 µM in each case. Further, the total growth inhibition concentration (TGI) in assay [7], in assay [8], in [9] and in assay [10] was greater than 10 µM in each case.

Turning to `CC(C)N1CCN(c2ccc(OCC3COC(Cn4cncn4)(c4ccc(Cl)cc4Cl)O3)cc2)CC1` (stereo not drawn), the total growth inhibition concentration (TGI) in assay [1] turned out to be 37.4 µM; in [2] it was 30.9 µM; in [3], 28.9 µM; in assay [4], 32.5 µM; in assay [5] it was 39.2 µM; in assay [6], 30.8 µM. The TGI in assay [7] is 16.6 µM; in [8], 29.7 µM; in assay [9], 30 µM; in assay [10], 28.8 µM.

With `Cc1cc(OP2(=O)NCc3ncccc3O2)ccc1Cl` (stereo not drawn), the concentration for total growth inhibition (TGI) in assay [1], in [2], in assay [4], in assay [5], in assay [6] and in assay [7] was greater than 100 µM throughout. Also, the TGI in assay [8], in [9] and in [10] was greater than 100 µM throughout.

As to `CC12c3c4ccc(C=O)c3Oc3ccc(C=O)c(c31)Oc1ccc(C=O)c(c12)O4`, the TGI in assay [1], in [2], in assay [3], in assay [4], in assay [5] and in assay [6] was greater than 25 µM each time. The concentration for total growth inhibition (TGI) in assay [7], in assay [8], in assay [9] and in assay [10] was greater than 25 µM each time.

On to `CN1CCN(Cc2cc3c(nn2)-c2ccccc2C3=O)CC1`, for which the TGI in assay [1], in assay [2], in assay [3], in assay [4], in assay [5] and in assay [6] was greater than 100 µM throughout. Also, the TGI is 52.3 µM in assay [7], greater than 100 µM in assay [8], greater than 100 µM in [9] and greater than 100 µM in assay [10].

`O=C(CC(=O)Nc1ccccc1)NNC(Sc1ccccc1)c1cc(N=Nc2ccc(Br)cc2)ccc1O` (stereo not drawn): the TGI in assay [1], in [2], in assay [3], in assay [4], in assay [6] and in assay [7] was greater than 10 µM each time. For the same compound, the TGI in assay [8], in assay [9] and in [10] was greater than 10 µM throughout.

Take `CCCCOCCOC1=C(Cl)C(=O)c2c(O)ccc(O)c2C1=O`: the TGI came to 0.387 µM in assay [1]; 1.02 µM in [2]; 6.65 µM in [3]; 0.242 µM in assay [4]; 2.56 µM in assay [5]; 0.657 µM in assay [6]. Further, the total growth inhibition concentration (TGI) in assay [7] was 0.766 µM; in assay [8], 0.806 µM; in assay [9], 0.341 µM; in assay [10], 1.96 µM.

In the case of `COc1cc(Nc2ccc3c(c2)CCC3)nc(OC)n1`, the total growth inhibition concentration (TGI) in assay [1], in assay [2], in [3], in assay [4], in assay [5] and in assay [6] was greater than 100 µM in each case. In addition, the TGI in [7] is greater than 100 µM; in assay [8] it was 40.9 µM; in [9], greater than 100 µM.

On to `C/C1=C\[C@H](C)C[C@H](C)OC(=O)[C@H](C)NC(=O)[C@@H](Cc2ccc(O)c(Br)c2)N(C)C(=O)[C@H](C)NC(=O)[C@@H](C)C1`, for which the total growth inhibition concentration (TGI) is greater than 25 µM in assay [1]; greater than 25 µM in assay [2]; 2.04 µM in assay [3]; greater than 10.3 µM in assay [4]; greater than 7.69 µM in assay [5]; 0.177 µM in [6]. The total growth inhibition concentration (TGI) in assay [7] is greater than 25 µM; in assay [8] it was 0.604 µM; in assay [9] it was 4.12 µM; in assay [10], greater than 19.5 µM.

On to `O=C(CNc1ccc(Cl)cc1Cl)Nn1c(-c2ccccc2)nc2ccccc2c1=O`, for which the total growth inhibition concentration (TGI) in [1] is 34.4 µM; in [2] it was 29.8 µM; in [3], greater than 100 µM; in [4] it was 16.3 µM; in assay [5] it was greater than 100 µM; in assay [6], 22.7 µM. Also, the TGI in assay [7] amounted to 34.5 µM; in assay [8], 71.3 µM; in [9], 34.5 µM; in assay [10], 43.3 µM.

For `CO/N=C(/C(=O)OC)c1ccccc1COc1ccccc1C(F)(F)F`, the total growth inhibition concentration (TGI) in [2] was greater than 100 µM; in assay [3], 91.8 µM; in assay [4] it was greater than 100 µM; in assay [5], greater than 100 µM; in assay [6], greater than 100 µM; in [7] it was greater than 100 µM. Further, the concentration for total growth inhibition (TGI) in [8] is 50.3 µM; in assay [9] it was greater than 100 µM; in assay [10], greater than 100 µM.

For the compound `O=C1CSC2(CC(/C=C/c3cccs3)=NN2c2cccc(S(=O)(=O)O)c2)N1c1nc2ccccc2s1` (stereo not drawn), the concentration for total growth inhibition (TGI) in assay [1], in assay [2], in assay [4], in assay [5], in assay [6] and in [7] was greater than 100 µM throughout. Besides, the concentration for total growth inhibition (TGI) in [8], in assay [9] and in [10] was greater than 100 µM each time.

With `C=C1C(=O)[C@@]23CC[C@@H]4[C@@]5(C)CCC[C@@]4(OC5=O)[C@@]2(C)CC[C@@H]1C3`, the TGI in [2] is 4.49 µM; in assay [3], 23.3 µM; in [4], greater than 33.7 µM; in assay [5] it was 8.54 µM; in assay [6], 57.7 µM; in assay [7], greater than 100 µM. Besides, the values for the total growth inhibition concentration (TGI) in assay [9] and in assay [10] were 3.24 µM and greater than 26.1 µM, respectively.

Consider `[N-]=[N+]=CC(=O)OC(CCl)CCl`, for which the TGI in assay [1], in assay [2], in [3], in assay [6], in assay [7] and in assay [8] was greater than 100 µM throughout. Also, the total growth inhibition concentration (TGI) in [9] and in [10] was greater than 100 µM in each case.

Take `CCN(CC)c1ccc(/C=C/c2ccnc3ccccc23)cc1`: the TGI in assay [1], in [2], in assay [3], in [4], in [6] and in [7] was greater than 100 µM throughout. Further, the total growth inhibition concentration (TGI) in assay [8] and in [9] was greater than 100 µM in each case.

As to `C=C(C)CNCCN`, the total growth inhibition concentration (TGI) in [1], in assay [2], in assay [4], in assay [5], in [6] and in [7] was greater than 100 µM in each case. For the same compound, the TGI in [9] and in [10] was greater than 100 µM in each case.

Turning to `Clc1sc(Cl)c2c1[C@@H](Cl)C[C@@H]2Br`, the TGI was greater than 100 µM in assay [1]; greater than 100 µM in assay [2]; greater than 100 µM in assay [3]; 88.1 µM in [4]; greater than 100 µM in assay [5]; greater than 100 µM in assay [6]. Besides, the total growth inhibition concentration (TGI) is greater than 100 µM in assay [7], greater than 100 µM in assay [9] and 43.9 µM in assay [10].

Consider `COc1ccc2oc(=N)c(C(=O)Nc3ccccc3)cc2c1`, for which the total growth inhibition concentration (TGI) was found to be 80.9 µM in [1]; 51.8 µM in assay [2]; 39.7 µM in assay [3]; 37.1 µM in assay [4]; 46 µM in [5]; 48.4 µM in assay [7]. For the same compound, the concentration for total growth inhibition (TGI) in [8] was 83 µM; in assay [9], 43.8 µM; in assay [10], greater than 100 µM.

On to `N#CC(c1ccccc1)N(CCOCCOCCN(C(=O)c1ccccc1)C(C#N)c1ccccc1)C(=O)c1ccccc1` (stereo not drawn), for which the TGI in assay [1], in [2], in [3], in assay [4], in assay [5] and in [6] was greater than 100 µM throughout. Also, the TGI in [7], in assay [9] and in assay [10] was greater than 100 µM each time.

`CC1=C(C#N)c2nc3ccccc3n2C(=O)C1(C)CCO` (stereo not drawn): the concentration for total growth inhibition (TGI) in assay [1], in [2], in [3], in assay [4], in assay [5] and in assay [6] was greater than 100 µM each time. The TGI in [7] and in assay [9] was greater than 100 µM each time.

As for `Cn1c2ccccc2c2c(=S)c3ccccc3ccc21`, the TGI in assay [1], in assay [2], in assay [3], in assay [4], in assay [5] and in assay [6] was greater than 100 µM throughout. Also, the TGI in [7], in assay [9] and in assay [10] was greater than 100 µM throughout.
